# Assay results published in article PMC9101642 (Molecules, 2022).
# Marks after values point to notes of the source that are not given here.
# Legend:
# ERβ = ERβ (Homo sapiens, UniProt Q92731); assay: Fluorescence polarization competition assay: antagonistic potency and relative binding affinity
# MCF-7 cell lines = assay: MTT antiproliferative assay; format: cell-based, human; conditions: Homo sapiens, MCF7; growth inhibition, 48 h; read-out: MCF-7 (IC50 nM)
# MDA-MB-231 cell lines = assay: MTT antiproliferative assay; format: cell-based, human; conditions: Homo sapiens, MDA-MB-231; growth inhibition, 48 h; read-out: MDA-MB-231 (IC50 nM)
# [1] = tested on: Ishikawa endometrial adenocarcinoma cells; assay: Antiproliferative assay; format: cell-based; conditions: Homo sapiens, growth inhibition
# From the text: As SERMs profile is often associated with the stimulation of endometrial cell proliferation and an increase in the incidence of endometrial cancer (EC), the herein compounds were therefore evaluated against Ishikawa endometrial adenocarcinoma cells (Table 8, Supplementary Material Figures […]). […] However, future experimental elaboration, currently beyond the authors' experimental facilities, is required to confirm compounds' promising profiles in terms of no EC induction.
# [2] = tested on: progesterone receptor (PR); assay: ERα functional antagonism cell assay (PR as biomarker) in MCF-7; format: cell-based; conditions: Homo sapiens, MCF7; progesterone receptor as biomarker for ERα antagonism in MCF-7
# MCF-7 cells = assay: Cell cycle distribution by flow cytometry; format: cell-based, human; conditions: 24 h
# [3] = tested on: MNU-induced breast cancer; assay: In vivo anticancer screening, MNU-induced mammary tumorigenesis; design: species or system female Wistar rats
# [4] = Plasma protein binding determination; format: in vitro ADME, rat; conditions: rat plasma, 37 °C, read-out: Rat PPB (%free)
# Experimental: (§1) Rats were housed at 3 per cage and
# (§2) The breast cancer was induced after the MNU (Sigma Aldrich CAS No. 684-93-5) administration. An aqueous solution at a concentration of 10 mg/ml was made by wetting the NMU powder with 3% acetic acid and then dissolving it in 0.9% NaCl solution; a fresh solution was prepared for each injection. Rats were given intraperitoneal (i.p.) 50 mg/kg of MNU on the 50th day of age. Animals were divided into different groups with six animals in each group. Group I (intact control) received 0.9% NaCl solution.
# (§3) Groups II-IV and V-VII were introduced with MNU. Two weeks after MNU treatment, animals were treated orally with synthesized compounds and control substances (5 and 50 mg/kg, for groups II-IV and V-VII, respectively) by gavage once per day for six weeks. Animals in the intact control group and untreated MNU group were given vehicle (Tween 80) according to the experimental protocol. […]
# (§4) Upon finishing the treatment with synthesized compounds, animals were sacrificed, and plasma, serum, and liver samples were collected. […]
# Rat plasma containing either 5 or 50 mg/kg bwt of the tested compounds was incubated at 37°C upper reservoir of the washed Centri-free YM-30 ultrafiltration units (Millipore, Bedford, MA) and then centrifuged for 20 min at 2,000 g. Aliquots of the ultrafiltrates and unfiltered incubation mixtures were analyzed for the total protein concentration by the bicinchoninic acid assay for protein concentration (BCA assay; Pierce, Rockford, IL).
# [5] = Serum biochemical markers after treatment of MNU-induced rats; format: in vivo, Wistar rats; design: TBC: unit not given here; conditions: for ALP (A/L) / ALT (A/L) / AST (U/L) / γ-GT (U/L): serum; for TBC: total bilirubin content
# Experimental: as §1, §2, §3
# Upon finishing the treatment with synthesized compounds, animals were sacrificed, and plasma, serum, and liver samples were collected.
# Measurement of Serum Biochemical Markers
# The activities of AST and ALT on 340 nm, and ALP on 405 nm, were determined by UV-Vis kinetic methods according to recommendations of the Expert Panel of the IFCC (International Federation of Clinical Chemistry). The colorimetric methods were used for the determination of total bilirubin (Jendrassik-Grof 550 nm method). All kinetic and colorimetric measurements were recorded using a Perkin-Elmer Lambda 25 UV/Vis spectrophotometer. […]
# [6] = Liver oxidative stress markers after treatment of MNU-induced rats; format: in vivo, Wistar rats; conditions: liver; for CAT: catalase activity; for GSH: reduced glutathione; for SOD (U/mg): superoxide dismutase activity
# Experimental: as §1, §2, §3, §4
# Determination of Antioxidant Markers in Liver Homogenate
# Rat liver samples were homogenized in phosphate buffer (5 mM, pH = 7.4) to give a 10% (w/v) liver homogenate and then centrifuged at 4000 rpm for 15 min at 4°C. The supernatant of liver homogenate was used for the estimation of reduced glutathione (GSH) and catalase (CAT) levels by the colorimetric method. The contents of malondialdehyde (MDA) in the supernatant of the liver homogenates were determined using 1,1,3,3-tetraethoxypropane as standard. Total protein concentrations were determined according to the method of Lowry using bovine serum albumin as […]
# [7] = tested on: MNU-induced breast cancer tissue; assay: Histopathology of breast sections; format: in vivo, Wistar rats
# From the text: The impact of selected leads on BC tissue was registered after their administration to experimental animals with MNU-induced BC (Figure 9 and Supplementary Material Figures S211–S218). […] In contrast to this, the administered leads were harmless in both concentrations, neutralizing the MNU-induced changes, judging by the lobuloalveolar units and cuboidal epithelial cells found (Figure 9C,D, and Supplementary Material Figures S214–S218). […]
# Histopathological Studies
# histopathological changes. […]
# [8] = rat, in vivo
# [9] = Lipophilicity by shake-flask method; conditions: pH 7.4
# [10] = Pharmacokinetics study, oral bioavailability; conditions: rat
# [11] = MTT antiproliferative assay (neutral control); conditions: human
# [12] = dose 50 mg/kg (compounds per os after MNU; MNU alone i.p.)
# ERβ, sequence (Q92731 whole entry): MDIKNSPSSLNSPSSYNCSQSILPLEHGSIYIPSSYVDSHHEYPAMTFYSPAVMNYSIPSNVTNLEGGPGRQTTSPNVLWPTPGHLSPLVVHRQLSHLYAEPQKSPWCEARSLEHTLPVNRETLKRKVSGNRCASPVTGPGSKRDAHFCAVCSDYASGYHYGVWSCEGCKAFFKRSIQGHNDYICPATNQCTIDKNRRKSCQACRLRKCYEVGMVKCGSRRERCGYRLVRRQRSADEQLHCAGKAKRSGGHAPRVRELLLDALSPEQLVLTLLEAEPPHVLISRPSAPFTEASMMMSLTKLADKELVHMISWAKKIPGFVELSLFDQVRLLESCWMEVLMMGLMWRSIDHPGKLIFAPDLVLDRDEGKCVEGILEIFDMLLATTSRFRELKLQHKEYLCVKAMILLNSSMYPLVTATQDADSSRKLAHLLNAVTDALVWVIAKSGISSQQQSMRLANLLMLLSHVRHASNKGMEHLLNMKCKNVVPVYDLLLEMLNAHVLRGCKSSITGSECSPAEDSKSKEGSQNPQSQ
smiles,measurement,setting,value
"CC(=O)c1cc(C(=O)O[C@@H]2/C=C/C(=O)O[C@@H](O)CCC/C=C/[C@@H]3C[C@H](O)C[C@H]32)ccc1OCCS(=O)(=O)O [Compound 3DPQ-4, 2-(2-acetyl-4-((((1R,2E,6R,10E,11aS,13S,14aR)-6,13-dihydroxy-4-oxo-4,6,7,8,9,11a,12,13,14,14a-decahydro-1H-cyclopenta[f][1]oxacyclotridecin-1-yl)oxy)carbonyl)phenoxy)ethanesulfonic acid]",Ki,"ERβ; calculated antagonistic (inhibitory) constant, read-out: Ka ERβ",0.0463 µM
same,IC50,"ERβ; concentration that antagonizes 50% of ERβ signaling activity, read-out: ERβ (IC50 nM)",82.45 ± 0.54 nM
same,logRBA ERβ,"ERβ; log of % relative binding affinity, estradiol = 100%","0.03 ^†,‡,§"
same,IC50,MCF-7 cell lines,0.64 ± 0.15 nM
same,IC50,MDA-MB-231 cell lines,67.31 ± 0.34 nM
same,IC50,[1],0.92 ± 0.43 nM
same,IC50,[2],> 100 nM
same,Cell Cycle (%) G0/G1,MCF-7 cells; 0.1 nM,"77.78 ± 3.54 *^,†,‡,§ %"
same,Cell Cycle (%) G2/M,MCF-7 cells; 0.1 nM,"15.02 ± 4.23 *^,†,‡,§ %"
same,Cell Cycle (%) S,MCF-7 cells; 0.1 nM,"7.20 ± 2.88 *^,†,‡,§ %"
same,Cell Cycle (%) G0/G1,MCF-7 cells; 1 nM,"80.24 ± 2.53 *^,†,‡,§ %"
same,Cell Cycle (%) G2/M,MCF-7 cells; 1 nM,"11.86 ± 3.43 *^,†,‡,§ %"
same,Cell Cycle (%) S,MCF-7 cells; 1 nM,"7.91 ± 0.1.54 *^,†,‡,§ %"
same,Tumor Burden (week),[3]; dose 5 mg/kg per os after MNU,"2.39 ± 0.56 *^,†,‡,‖ week"
same,Tumor Latency (week),[3]; dose 5 mg/kg per os after MNU,"10 *^,† week"
same,Tumor Volume (mm^3),[3]; dose 5 mg/kg per os after MNU,"0.98 ± 0.31 *^,†,‡,‖ mm^3"
same,Tumor Burden (week),[3]; [12],"1.33 ± 0.15 *^,†,§,┴ week"
same,Tumor Latency (week),[3]; [12],"14 *^,† week"
same,Tumor Volume (mm^3),[3]; [12],"0.41 ± 0.23 *^,†,§,┴ mm^3"
same,fraction unbound at 5 mg/kg bwt,[4]; 5 mg/kg,0.0123
same,fraction unbound at 50 mg/kg bwt,[4]; 50 mg/kg,0.0151
same,ALP (A/L),[5]; dose 5 mg/kg,99.41±0.15 A/L
same,ALT (A/L),[5]; dose 5 mg/kg,55.87±0.62 A/L
same,AST (U/L),[5]; dose 5 mg/kg,57.53±0.43 U/L
same,γ-GT (U/L),[5]; dose 5 mg/kg,11.54±0.53 U/L
same,ALP (A/L),[5]; dose 50 mg/kg,104.52±0.31 A/L
same,ALT (A/L),[5]; dose 50 mg/kg,59.74±0.1 A/L
same,AST (U/L),[5]; dose 50 mg/kg,59.46±0.63 U/L
same,γ-GT (U/L),[5]; dose 50 mg/kg,13.46±0.55 U/L
same,TBC,[5]; dose 5 mg/kg,19.31
same,TBC,[5]; dose 50 mg/kg,22.74
same,CAT,[6]; dose 5 mg/kg,16.34±0.73
same,CAT,[6]; dose 50 mg/kg,16.43±0.66
same,TBARS,[6]; dose 5 mg/kg,0.65 ± 0.21 nmol/mg
same,TBARS,[6]; dose 50 mg/kg,0.65 ± 0.34 nmol/mg
same,GSH,[6]; dose 5 mg/kg,9.87 mg/g
same,GSH,[6]; dose 50 mg/kg,10.36 mg/g
same,SOD (U/mg),[6]; dose 5 mg/kg,8.73±0.38 U/mg
same,SOD (U/mg),[6]; dose 50 mg/kg,10.57±0.73 U/mg
same,TP,"[6]; total protein content, dose 50 mg/kg",48.54 g/L
same,breast section histopathology,[7]; 5 mg/kg of bwt,lobuloalveolar unit (LaU) and cuboidal epithelial cells (CE)
same,breast section histopathology,[7]; 50 mg/kg of bwt,lobuloalveolar unit (LaU) and cuboidal epithelial cells (CE)
same,"WL after MFD (day 1, mg)",[8],320.73 ± 0.36 mg
same,logD at 30 min,[9],1.88
same,BIO,[10]; oral 5 mg/kg,90
same,BIO,[10]; oral 50 mg/kg,93
same,IC50 at 48 h,[11],> 0.1 µM
